# Measurements as given in patent publication US20150253327A1, “DIAGNOSIS AND TREATMENT OF ASPIRIN-EXACERBATED RESPIRATORY DISEASE (AERD)” (BRIGHAM AND WOMEN'S HOSPITAL, INC., priority 2012, published 2015).
# Experiments:
# human platelets = conditions: exogenous cysLTs; inventors' previous work (ref 49); cited from earlier work
# mice = conditions: pathway depends on platelet associated P2Y12 receptors (ref 49); cited from earlier work
# [1] = test system: fMLP-stimulated granulocytes; test: Suppression of fMLP-induced LTB4 generation by granulocytes from subjects with AERD; assay type: cell-based, human; conditions: pretreatment of granulocytes from subjects with AERD; FIG. 12B-12C
# Excerpt: FIG. 12A depicts a graph of percentages of platelet-adherent neutrophils (determined by CD61^+ expression) in whole blood from eight subjects with AERD plotted against quantity of LTB4 generated by fMLP-stimulated granulocytes from the same individuals. Percent suppression of fMLP-induced LTB4 by pretreatment with (FIG. 12B) PGE2 or (FIG. 12C) the EP2 receptor-specific agonist was plotted against percentages of platelet-adherent neutrophils in the peripheral blood of each subject. Effect size, determined with Pearson correlation coefficient, is denoted as an r value.
# Platelet-rich plasma was removed from whole peripheral blood by centrifugation, washed, and resuspended at a concentration of 1×10^9 platelets/mL. […] Granulocytes were counted and a portion was stripped of adherent platelets by incubation with 0.05% trypsinethylenediaminetetraacetic acid for 15 minutes at 37° C.^17 Removal of adherent platelets was confirmed by cytofluorographic analysis of samples of the granulocytes before and after trypsinization. […]
# The percentage of platelet-adherent neutrophils (as determined by CD61+ expression) in the whole blood of subjects with AERD was positively correlated with the amount of LTB4 generated by fMPL-stimulation of granulocytes from the same subjects (FIG. 12A). […]
# [2] = extracellular milieu (ref 43); cited from earlier work
compound,measurement,setting,value
CCCCC/C=C\C\C=C/C=C/C=C/[C@@H](SC[C@H](N)C(=O)O)[C@@H](O)CCCC(=O)O [LTE4],adherence of platelets to granulocytes,human platelets,do not directly cause human platelets to adhere to granulocytes
same,pulmonary eosinophilia,mice,markedly potentiates pulmonary eosinophilia
CCCCC[C@H](O)/C=C/[C@H]1[C@H](O)CC(=O)[C@@H]1C/C=C\CCCC(=O)O [PGE2],suppression of leukotriene production (fMLP-induced LTB4),[1],able to suppress leukotriene production
"CCCCC/C=C\C\C=C/C=C/C=C/[C@@H]1O[C@H]1CCCC(=O)O [LTA4, leukotriene (LT)A4]",extracellular half-life,[2],less than 5 seconds
